ChEMBL document CHEMBL1764959, “Design, synthesis, and structure-activity relationship studies of thiophene-3-carboxamide derivatives as dual inhibitors of the c-Jun N-terminal kinase” (Bioorg Med Chem, 2011)

How the values were obtained:
[1] = target: Serine/threonine-protein kinase pim-1 (Homo sapiens) (UniProt P11309); experiment: Inhibition of PIM1 at 25 uM by TR-FRET assay
[2] = target: Serine/threonine-protein kinase B-raf (Homo sapiens) (UniProt P15056); experiment: Inhibition of BRAF at 25 uM by TR-FRET assay
[3] = target: RAC-alpha serine/threonine-protein kinase (Homo sapiens) (UniProt P31749); experiment: Inhibition of AKT1 at 25 uM by TR-FRET assay
[4] = target: T1, Mitogen-activated protein kinase 8 (Homo sapiens, UniProt P45983); conditions: 25 uM
Description: Inhibition of JNK1 at 25 uM by TR-FRET assay

[5] = target: Phosphatidylinositol 4,5-bisphosphate 3-kinase catalytic subunit alpha isoform (Homo sapiens) (UniProt P42336); experiment: Inhibition of PI3Kalpha at 25 uM by TR-FRET assay
[6] = target: Inhibitor of nuclear factor kappa-B kinase subunit alpha (Homo sapiens) (UniProt O15111); experiment: Inhibition of CHUK at 25 uM by TR-FRET assay
[7] = target: Aurora kinase A (Homo sapiens) (UniProt O14965); experiment: Inhibition of AURK A at 25 uM by TR-FRET assay
[8] = target: Protein kinase C alpha type (Homo sapiens) (UniProt P17252); experiment: Inhibition of PRKCA at 25 uM by TR-FRET assay
[9] = target: T1, Mitogen-activated protein kinase 8; experiment: Inhibition of JNK1 by TR-FRET assay
[10] = target: T2, Mitogen-activated protein kinase 9 (Homo sapiens, UniProt P45984); experiment: Binding affinity to JNK2
[11] = target: 3-phosphoinositide-dependent protein kinase 1 (Homo sapiens) (UniProt O15530); experiment: Inhibition of PDK1 at 25 uM by direct TR-FRET assay
[12] = target: Sphingosine kinase 1 (Homo sapiens) (UniProt Q9NYA1); experiment: Inhibition of SPHK1 at 25 uM by TR-FRET assay
[13] = target: Serine/threonine-protein kinase Chk1 (Homo sapiens) (UniProt O14757); experiment: Inhibition of CHEK1 at 25 uM by TR-FRET assay
[14] = target: Rho-associated protein kinase 1 (Homo sapiens) (UniProt Q13464); experiment: Inhibition of ROCK1 at 25 uM by TR-FRET assay
[15] = target: Mitogen-activated protein kinase 10 (Homo sapiens) (UniProt P53779); experiment: Inhibition of JNK3 at 25 uM by TR-FRET assay
[16] = target: Mitogen-activated protein kinase 3 (Homo sapiens) (UniProt P27361); experiment: Inhibition of MAPK3 at 25 uM by TR-FRET assay
[17] = target: Serine/threonine-protein kinase mTOR (Homo sapiens) (UniProt P42345); experiment: Inhibition of FRAP1 at 25 uM by TR-FRET assay
[18] = tested on: Plasma; experiment: Metabolic stability in rat plasma after 60 mins by LC/MS analysis; format: ADME, cell-free; conditions: 1 h
[19] = target: Mitogen-activated protein kinase kinase kinase 9 (Homo sapiens) (UniProt P80192); experiment: Inhibition of MAPK3K9 at 25 uM by TR-FRET assay
[20] = target: T1, Mitogen-activated protein kinase 8; experiment: Displacement of biotin-labeled JIP1 peptide from JNK1 by DELFIA assay
[21] = target: Calcium/calmodulin-dependent protein kinase type 1 (Homo sapiens) (UniProt Q14012); experiment: Inhibition of CAMK1 at 25 uM by TR-FRET assay
[22] = target: T2, Mitogen-activated protein kinase 9; experiment: Inhibition of JNK2 at 25 uM by TR-FRET assay
[23] = target: Mitogen-activated protein kinase kinase kinase kinase 2 (Homo sapiens) (UniProt Q12851); experiment: Inhibition of MAP4K2 at 25 uM by TR-FRET assay
[24] = target: Glycogen synthase kinase-3 alpha (Homo sapiens) (UniProt P49840); experiment: Inhibition of GSK3alpha at 25 uM by TR-FRET assay
[25] = target: Mitogen-activated protein kinase 14 (Homo sapiens) (UniProt Q16539); experiment: Inhibition of MAPK14 at 25 uM by direct TR-FRET assay
[26] = target: Dual specificity mitogen-activated protein kinase kinase 1 (Homo sapiens) (UniProt Q02750); experiment: Inhibition of MAK2K1 at 25 uM by TR-FRET assay
[27] = target: Mitogen-activated protein kinase 1 (Homo sapiens) (UniProt P28482); experiment: Inhibition of MAPK1 at 25 uM by TR-FRET assay
[28] = target: Serine/threonine-protein kinase Nek1 (Homo sapiens) (UniProt Q96PY6); experiment: Inhibition of NEK1 at 25 uM by TR-FRET assay
[29] = target: 5'-AMP-activated protein kinase catalytic subunit alpha-1 (Homo sapiens) (UniProt Q13131); experiment: Inhibition of AMPK A1 at 25 uM by TR-FRET assay
[30] = target: Mitogen-activated protein kinase 14 (Homo sapiens) (UniProt Q16539); experiment: Inhibition of MAPK14 at 25 uM by TR-FRET assay
[31] = target: Cyclin-dependent kinase 1 (Homo sapiens) (UniProt P06493); experiment: Inhibition of CDK1 at 25 uM by TR-FRET assay

T1 sequence (P45983 whole entry, canonical isoform): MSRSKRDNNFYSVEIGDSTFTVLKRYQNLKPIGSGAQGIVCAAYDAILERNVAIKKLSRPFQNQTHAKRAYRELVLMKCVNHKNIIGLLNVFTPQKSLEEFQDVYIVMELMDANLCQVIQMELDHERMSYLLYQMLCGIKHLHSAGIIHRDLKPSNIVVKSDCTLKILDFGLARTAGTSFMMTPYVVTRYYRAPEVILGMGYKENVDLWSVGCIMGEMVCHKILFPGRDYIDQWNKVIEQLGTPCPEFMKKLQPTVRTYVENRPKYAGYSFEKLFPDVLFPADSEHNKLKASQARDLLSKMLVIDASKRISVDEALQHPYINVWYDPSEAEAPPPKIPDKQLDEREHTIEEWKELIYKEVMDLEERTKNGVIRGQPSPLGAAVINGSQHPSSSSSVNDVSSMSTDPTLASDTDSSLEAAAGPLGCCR
Mitogen-activated protein kinase 14 (Homo sapiens), sequence (Q16539 whole entry): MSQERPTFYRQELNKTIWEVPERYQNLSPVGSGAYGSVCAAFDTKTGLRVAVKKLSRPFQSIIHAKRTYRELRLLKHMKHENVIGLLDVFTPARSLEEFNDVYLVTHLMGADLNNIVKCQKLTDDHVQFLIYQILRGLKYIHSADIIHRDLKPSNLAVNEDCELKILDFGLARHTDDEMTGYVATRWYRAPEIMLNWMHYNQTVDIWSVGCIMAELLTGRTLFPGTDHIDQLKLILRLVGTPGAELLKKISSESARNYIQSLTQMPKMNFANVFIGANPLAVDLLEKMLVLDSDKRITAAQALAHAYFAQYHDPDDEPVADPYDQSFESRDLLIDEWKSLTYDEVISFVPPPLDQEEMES
Mitogen-activated protein kinase 1 (Homo sapiens), sequence (P28482 whole entry): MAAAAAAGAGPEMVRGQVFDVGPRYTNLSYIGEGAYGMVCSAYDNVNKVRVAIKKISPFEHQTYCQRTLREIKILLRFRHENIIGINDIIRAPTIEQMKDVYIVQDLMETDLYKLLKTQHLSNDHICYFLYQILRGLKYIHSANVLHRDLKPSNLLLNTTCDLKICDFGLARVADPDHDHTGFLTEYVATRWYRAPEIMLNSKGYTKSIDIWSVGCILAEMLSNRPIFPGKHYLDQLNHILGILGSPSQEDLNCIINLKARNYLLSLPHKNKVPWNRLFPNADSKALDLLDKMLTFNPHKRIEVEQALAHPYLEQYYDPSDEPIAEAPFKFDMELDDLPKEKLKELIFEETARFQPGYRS
Dual specificity mitogen-activated protein kinase kinase 1 (Homo sapiens), sequence (Q02750 whole entry): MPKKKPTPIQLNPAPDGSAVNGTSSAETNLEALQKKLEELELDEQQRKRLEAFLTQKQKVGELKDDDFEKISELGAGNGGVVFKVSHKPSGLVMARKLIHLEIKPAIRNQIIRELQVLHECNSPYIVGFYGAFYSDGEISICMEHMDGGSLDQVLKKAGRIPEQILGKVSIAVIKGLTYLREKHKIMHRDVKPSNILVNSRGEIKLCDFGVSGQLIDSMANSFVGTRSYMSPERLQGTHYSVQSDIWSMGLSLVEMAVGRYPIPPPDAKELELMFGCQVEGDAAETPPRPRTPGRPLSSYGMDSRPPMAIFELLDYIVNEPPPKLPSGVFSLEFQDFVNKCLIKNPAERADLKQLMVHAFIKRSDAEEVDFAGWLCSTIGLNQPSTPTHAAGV
Aurora kinase A (Homo sapiens), sequence (O14965 whole entry): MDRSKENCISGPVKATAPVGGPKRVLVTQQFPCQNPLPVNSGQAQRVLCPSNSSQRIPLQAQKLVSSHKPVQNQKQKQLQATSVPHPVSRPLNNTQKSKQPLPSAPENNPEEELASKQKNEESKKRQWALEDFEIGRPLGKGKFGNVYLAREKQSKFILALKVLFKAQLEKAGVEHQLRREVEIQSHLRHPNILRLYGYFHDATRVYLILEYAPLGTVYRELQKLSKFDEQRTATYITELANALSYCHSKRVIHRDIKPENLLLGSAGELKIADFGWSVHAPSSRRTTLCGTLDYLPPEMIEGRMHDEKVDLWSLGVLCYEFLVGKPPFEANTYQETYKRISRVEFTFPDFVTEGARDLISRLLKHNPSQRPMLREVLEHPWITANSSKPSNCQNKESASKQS
Mitogen-activated protein kinase kinase kinase 9 (Homo sapiens), sequence (P80192 whole entry, looked up): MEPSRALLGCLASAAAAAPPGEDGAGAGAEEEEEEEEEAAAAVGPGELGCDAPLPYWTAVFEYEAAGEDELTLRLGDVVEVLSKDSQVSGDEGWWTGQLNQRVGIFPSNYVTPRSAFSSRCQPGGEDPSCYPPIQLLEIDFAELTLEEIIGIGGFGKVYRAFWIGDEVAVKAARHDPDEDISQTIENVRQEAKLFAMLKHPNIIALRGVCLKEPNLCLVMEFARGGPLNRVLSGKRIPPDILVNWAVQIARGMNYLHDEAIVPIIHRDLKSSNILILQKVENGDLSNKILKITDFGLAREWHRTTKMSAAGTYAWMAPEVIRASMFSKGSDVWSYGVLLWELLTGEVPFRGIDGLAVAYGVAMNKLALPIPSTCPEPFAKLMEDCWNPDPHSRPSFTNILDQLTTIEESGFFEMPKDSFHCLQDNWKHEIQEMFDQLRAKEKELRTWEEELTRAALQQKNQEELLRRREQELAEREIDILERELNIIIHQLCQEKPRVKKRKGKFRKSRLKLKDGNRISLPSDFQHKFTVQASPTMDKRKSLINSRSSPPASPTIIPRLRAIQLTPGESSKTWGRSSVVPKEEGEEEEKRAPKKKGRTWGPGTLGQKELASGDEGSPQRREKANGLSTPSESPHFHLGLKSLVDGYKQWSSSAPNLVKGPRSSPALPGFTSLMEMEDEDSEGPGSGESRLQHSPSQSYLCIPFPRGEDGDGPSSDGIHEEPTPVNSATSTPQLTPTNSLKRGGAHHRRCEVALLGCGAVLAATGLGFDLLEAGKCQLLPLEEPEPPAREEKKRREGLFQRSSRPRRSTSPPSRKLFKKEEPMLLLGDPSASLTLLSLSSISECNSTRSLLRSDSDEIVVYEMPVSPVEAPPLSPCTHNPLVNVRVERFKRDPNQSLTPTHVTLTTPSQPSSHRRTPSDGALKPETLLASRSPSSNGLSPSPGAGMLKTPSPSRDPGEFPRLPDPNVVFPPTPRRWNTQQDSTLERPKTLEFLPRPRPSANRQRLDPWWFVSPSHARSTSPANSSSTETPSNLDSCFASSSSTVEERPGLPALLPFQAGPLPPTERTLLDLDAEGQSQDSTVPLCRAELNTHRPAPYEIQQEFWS
Mitogen-activated protein kinase 10 (Homo sapiens), sequence (P53779 whole entry): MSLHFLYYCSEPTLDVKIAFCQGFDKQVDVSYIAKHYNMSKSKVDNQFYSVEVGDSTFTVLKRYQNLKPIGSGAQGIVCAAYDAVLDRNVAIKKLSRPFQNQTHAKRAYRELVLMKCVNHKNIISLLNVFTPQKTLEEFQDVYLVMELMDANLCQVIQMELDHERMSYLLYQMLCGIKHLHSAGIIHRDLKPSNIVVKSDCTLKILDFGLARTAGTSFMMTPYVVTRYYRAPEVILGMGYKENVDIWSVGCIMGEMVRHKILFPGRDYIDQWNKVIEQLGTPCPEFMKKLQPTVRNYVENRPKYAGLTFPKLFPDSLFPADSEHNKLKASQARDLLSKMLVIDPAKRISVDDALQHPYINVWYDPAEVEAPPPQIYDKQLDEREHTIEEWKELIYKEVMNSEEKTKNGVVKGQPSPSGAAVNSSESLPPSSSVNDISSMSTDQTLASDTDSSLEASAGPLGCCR
Serine/threonine-protein kinase Nek1 (Homo sapiens), sequence (Q96PY6 whole entry): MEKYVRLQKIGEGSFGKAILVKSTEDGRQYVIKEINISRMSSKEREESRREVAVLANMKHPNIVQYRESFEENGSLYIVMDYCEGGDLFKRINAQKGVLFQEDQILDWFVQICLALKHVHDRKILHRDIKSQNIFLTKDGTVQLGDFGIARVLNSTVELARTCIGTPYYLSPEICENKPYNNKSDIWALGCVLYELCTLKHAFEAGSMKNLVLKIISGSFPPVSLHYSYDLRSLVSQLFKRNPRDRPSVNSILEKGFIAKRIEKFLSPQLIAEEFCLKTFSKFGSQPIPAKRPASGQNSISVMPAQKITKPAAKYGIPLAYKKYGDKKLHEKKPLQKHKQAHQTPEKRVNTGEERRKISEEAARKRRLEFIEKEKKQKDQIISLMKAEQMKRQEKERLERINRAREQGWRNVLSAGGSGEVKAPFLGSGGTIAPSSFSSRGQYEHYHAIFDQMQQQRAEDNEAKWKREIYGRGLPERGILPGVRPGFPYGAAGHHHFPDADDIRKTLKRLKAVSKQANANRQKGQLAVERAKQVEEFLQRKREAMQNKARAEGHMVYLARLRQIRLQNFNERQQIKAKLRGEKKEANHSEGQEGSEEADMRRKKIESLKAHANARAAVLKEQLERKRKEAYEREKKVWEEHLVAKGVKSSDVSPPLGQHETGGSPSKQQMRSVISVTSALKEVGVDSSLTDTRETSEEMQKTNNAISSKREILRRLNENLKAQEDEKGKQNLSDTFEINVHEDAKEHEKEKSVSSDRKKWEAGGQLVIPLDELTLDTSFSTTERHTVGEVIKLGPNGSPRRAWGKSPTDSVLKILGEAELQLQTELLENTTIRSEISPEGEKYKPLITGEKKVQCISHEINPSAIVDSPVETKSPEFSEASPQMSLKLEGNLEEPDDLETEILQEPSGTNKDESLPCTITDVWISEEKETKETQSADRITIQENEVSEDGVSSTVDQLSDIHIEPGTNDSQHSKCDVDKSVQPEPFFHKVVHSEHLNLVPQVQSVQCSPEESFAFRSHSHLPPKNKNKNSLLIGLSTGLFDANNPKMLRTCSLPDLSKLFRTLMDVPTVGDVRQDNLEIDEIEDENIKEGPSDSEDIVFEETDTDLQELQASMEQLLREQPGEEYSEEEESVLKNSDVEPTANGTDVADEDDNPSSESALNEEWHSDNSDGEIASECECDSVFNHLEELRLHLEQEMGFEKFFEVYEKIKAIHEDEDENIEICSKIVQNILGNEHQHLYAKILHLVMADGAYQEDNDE

NC(=O)c1ccsc1NC(=O)Cc1csc2ccccc12
inhibition [1]: 0%
inhibition [2]: 2%
inhibition [3]: 5%
inhibition [4]: 79%
inhibition [5]: 4%
inhibition [6]: 0%
inhibition [7]: 0%
inhibition [8]: 0%
IC50 [9]: 1300 nM
Kd [10]: 640 nM
inhibition [11]: 0%
inhibition [12]: 1%
inhibition [13]: 0%
inhibition [14]: 0%
inhibition [15]: 18%
inhibition [16]: 3%
inhibition [17]: 0%
Stability [18]: Stable
inhibition [19]: 0%
IC50 [20]: 4620 nM
inhibition [21]: 2%
inhibition [22]: 72%
inhibition [23]: 1%
inhibition [24]: 16%
inhibition [25]: 2%
inhibition [26]: 0%
inhibition [27]: 4%
inhibition [28]: 0%
inhibition [29]: 0%
inhibition [30]: 11%
inhibition [31]: 3%
